Data reported in PubChem BioAssay AID1259407 (Chemical Carcinogenesis Research Information System (CCRIS), 2018).
Activity calls are given as the source filed them. The rule behind the calls is not given here.

Test system: CCRIS mutagenicity, Ames/micronucleus/aberration tests
Test: CCRIS mutagenicity studies
Conditions: Test System: AMES SALMONELLA TYPHIMURIUM
[1] = Strain/Indicator: TA97, Metabolic Activation: NONE, Method: PREINCUBATION
[2] = Strain/Indicator: TA98, Metabolic Activation: NONE, Method: PREINCUBATION
[3] = Strain/Indicator: TA100, Metabolic Activation: NONE, Method: PREINCUBATION
[4] = Strain/Indicator: TA1535, Metabolic Activation: NONE, Method: PREINCUBATION

Measured: mutagenic call

N#CC(O)c1ccccc1 (stereo not drawn)
inactive: Strain/Indicator: TA97, Metabolic Activation: HAMSTER, LIVER, S-9, AROCLOR 1254 (10%), Method: PREINCUBATION inactive; negative | Strain/Indicator: TA97, Metabolic Activation: HAMSTER, LIVER, S-9, AROCLOR 1254 (30%), Method: PREINCUBATION inactive; negative | [1] inactive; negative | Strain/Indicator: TA97, Metabolic Activation: RAT, LIVER, S-9, AROCLOR 1254 (10%), Method: PREINCUBATION inactive; negative | Strain/Indicator: TA97, Metabolic Activation: RAT, LIVER, S-9, AROCLOR 1254 (30%), Method: PREINCUBATION inactive; negative | Strain/Indicator: TA98, Metabolic Activation: HAMSTER, LIVER, S-9, AROCLOR 1254 (10%), Method: PREINCUBATION inactive; negative | Strain/Indicator: TA98, Metabolic Activation: HAMSTER, LIVER, S-9, AROCLOR 1254 (30%), Method: PREINCUBATION inactive; negative | [2] inactive; negative | Strain/Indicator: TA98, Metabolic Activation: RAT, LIVER, S-9, AROCLOR 1254 (10%), Method: PREINCUBATION inactive; negative | Strain/Indicator: TA98, Metabolic Activation: RAT, LIVER, S-9, AROCLOR 1254 (30%), Method: PREINCUBATION inactive; negative | Strain/Indicator: TA100, Metabolic Activation: HAMSTER, LIVER, S-9, AROCLOR 1254 (10%), Method: PREINCUBATION inactive; negative | Strain/Indicator: TA100, Metabolic Activation: HAMSTER, LIVER, S-9, AROCLOR 1254 (30%), Method: PREINCUBATION inactive; negative | [3] inactive; negative | Strain/Indicator: TA100, Metabolic Activation: RAT, LIVER, S-9, AROCLOR 1254 (10%), Method: PREINCUBATION inactive; negative | Strain/Indicator: TA100, Metabolic Activation: RAT, LIVER, S-9, AROCLOR 1254 (30%), Method: PREINCUBATION inactive; negative | Strain/Indicator: TA1535, Metabolic Activation: HAMSTER, LIVER, S-9, AROCLOR 1254 (10%), Method: PREINCUBATION inactive; negative | Strain/Indicator: TA1535, Metabolic Activation: HAMSTER, LIVER, S-9, AROCLOR 1254 (30%), Method: PREINCUBATION inactive; negative | [4] inactive; negative | Strain/Indicator: TA1535, Metabolic Activation: RAT, LIVER, S-9, AROCLOR 1254 (10%), Method: PREINCUBATION inactive; negative | Strain/Indicator: TA1535, Metabolic Activation: RAT, LIVER, S-9, AROCLOR 1254 (30%), Method: PREINCUBATION inactive; negative

CC(C)(C)S(=O)(=O)C[C@@H](Cc1ccccc1)C(=O)N[C@@H](Cc1cnc[nH]1)C(=O)N[C@@H](CC1CCCCC1)[C@@H](O)[C@@H](O)C1CC1
inactive: [1] inactive; negative | Strain/Indicator: TA97, Metabolic Activation: NONE, Method: STANDARD PLATE inactive; negative | Strain/Indicator: TA97, Metabolic Activation: RAT, LIVER, S-9, PHENOBARBITAL AND BETA-NAPHTHOFLAVONE, Method: PREINCUBATION inactive; negative | Strain/Indicator: TA97, Metabolic Activation: RAT, LIVER, S-9, PHENOBARBITAL AND BETA-NAPHTHOFLAVONE, Method: STANDARD PLATE inactive; negative | [2] inactive; negative | Strain/Indicator: TA98, Metabolic Activation: NONE, Method: STANDARD PLATE inactive; negative | Strain/Indicator: TA98, Metabolic Activation: RAT, LIVER, S-9, PHENOBARBITAL AND BETA-NAPHTHOFLAVONE, Method: PREINCUBATION inactive; negative | Strain/Indicator: TA98, Metabolic Activation: RAT, LIVER, S-9, PHENOBARBITAL AND BETA-NAPHTHOFLAVONE, Method: STANDARD PLATE inactive; negative | [3] inactive; negative | Strain/Indicator: TA100, Metabolic Activation: NONE, Method: STANDARD PLATE inactive; negative | Strain/Indicator: TA100, Metabolic Activation: RAT, LIVER, S-9, PHENOBARBITAL AND BETA-NAPHTHOFLAVONE, Method: PREINCUBATION inactive; negative | Strain/Indicator: TA100, Metabolic Activation: RAT, LIVER, S-9, PHENOBARBITAL AND BETA-NAPHTHOFLAVONE, Method: STANDARD PLATE inactive; negative | Strain/Indicator: TA102, Metabolic Activation: NONE, Method: PREINCUBATION inactive; negative | Strain/Indicator: TA102, Metabolic Activation: NONE, Method: STANDARD PLATE inactive; negative | Strain/Indicator: TA102, Metabolic Activation: RAT, LIVER, S-9, PHENOBARBITAL AND BETA-NAPHTHOFLAVONE, Method: PREINCUBATION inactive; negative | Strain/Indicator: TA102, Metabolic Activation: RAT, LIVER, S-9, PHENOBARBITAL AND BETA-NAPHTHOFLAVONE, Method: STANDARD PLATE inactive; negative | [4] inactive; negative | Strain/Indicator: TA1535, Metabolic Activation: NONE, Method: STANDARD PLATE inactive; negative | Strain/Indicator: TA1535, Metabolic Activation: RAT, LIVER, S-9, PHENOBARBITAL AND BETA-NAPHTHOFLAVONE, Method: PREINCUBATION inactive; negative | Strain/Indicator: TA1535, Metabolic Activation: RAT, LIVER, S-9, PHENOBARBITAL AND BETA-NAPHTHOFLAVONE, Method: STANDARD PLATE inactive; negative | Strain/Indicator: TA1537, Metabolic Activation: NONE, Method: PREINCUBATION inactive; negative | Strain/Indicator: TA1537, Metabolic Activation: NONE, Method: STANDARD PLATE inactive; negative | Strain/Indicator: TA1537, Metabolic Activation: RAT, LIVER, S-9, PHENOBARBITAL AND BETA-NAPHTHOFLAVONE, Method: PREINCUBATION inactive; negative | Strain/Indicator: TA1537, Metabolic Activation: RAT, LIVER, S-9, PHENOBARBITAL AND BETA-NAPHTHOFLAVONE, Method: STANDARD PLATE inactive; negative | Strain/Indicator: TA1538, Metabolic Activation: NONE, Method: PREINCUBATION inactive; negative | Strain/Indicator: TA1538, Metabolic Activation: NONE, Method: STANDARD PLATE inactive; negative | Strain/Indicator: TA1538, Metabolic Activation: RAT, LIVER, S-9, PHENOBARBITAL AND BETA-NAPHTHOFLAVONE, Method: PREINCUBATION inactive; negative | Strain/Indicator: TA1538, Metabolic Activation: RAT, LIVER, S-9, PHENOBARBITAL AND BETA-NAPHTHOFLAVONE, Method: STANDARD PLATE inactive; negative
